Results reported in patent US8207172B2 (Bayer Intellectual Property GmbH, priority 2004, dated 2012).
Where a name gives a salt, the structure may show the parent alone.

What was measured:
[1] = system: A431 cells (human epidermoid carcinoma); test: In vitro tumor cell proliferation assay (Cell Titer-Glo luminescent cell viability), A431; assay type: cell-based; settings: A-431, 72 h, 72 hours of drug exposure, ATP luminescence readout, read-out: IC50, anti-proliferative activity (inhibition of cell proliferation)
From the text: (§1) In vitro Tumor Cell Proliferation Assay
(§2) The tumor cell proliferation assay used to test the compounds of the present invention involves a readout called Cell Titer-Glow® Luminescent Cell Viability Assay developed by Promega® (Cunningham, B A “A Growing Issue: Cell Proliferation Assays, Modern kits ease quantification of cell growth” The Scientist 2001, 15(13), 26, and Crouch, S P et al., “The use of ATP bioluminescence as a measure of cell proliferation and cytotoxicity” Journal of Immunological Methods 1993, 160, 81-88), that measures inhibition of cell proliferation. Generation of a luminescent signal corresponds to the amount of ATP present, which is directly proportional to the number of metabolically active (proliferating) cells.
(§3) A431cells (human epidermoid carcinoma, ATCC […]) and BT474 (human breast carcinoma, ATCC […]) were plated at a density of 2.5×10^3 cells/well in 96 well black-clear bottom tissue culture plates in RPMI media with 10% Fetal Bovine Serum and incubated at 37° C. Twenty-four hours later, test compounds are added at a final concentration range from as high […] to as low 64 pM depend on the activities of the tested compounds in serial dilutions at a final DMSO concentration of 0.1%. Cells were incubated for 72 hours at 37° C. in complete growth media after addition of the test compound. After 72 hours of drug exposure, the plates were equilibrated to room temperature for approximately 30 min. Then, using a Promega Cell Titer Glo Luminescent® assay kit, lysis buffer containing 100 microliters of the enzyme luciferase and its substrate, luciferin mixture, was added to each well. The plates were mixed for 2 min on orbital shaker to ensure cell lysis and incubated for 10 min at room temperature to stabilize luminescence signal. The samples were read on VICTOR 2 using Luminescence protocol, and analyzed with Analyze5 software to generate IC50 values.

[2] = system: BT474 (human breast carcinoma); test: In vitro tumor cell proliferation assay (Cell Titer-Glo luminescent cell viability), BT474; assay type: cell-based; settings: BT-474, 72 h, BT474 cells, 72 hours of drug exposure, ATP luminescence readout, read-out: IC50, anti-proliferative activity (inhibition of cell proliferation)
From the text: as §1, §2, §3

Compound: CN(C)C1CCN(CCn2cc3c(n2)CCc2c-3sc3ncnc(Nc4ccc(OCc5cccc(F)c5)c(Cl)c4)c23)C1 (stereo not drawn) [Example 66, N-{3-chloro-4-[(3-fluorobenzyl)oxy]phenyl}-2-{2-[3-(dimethylamino)pyrrolidin-1-yl]ethyl}-4,5-dihydro-2H-pyrimido[5′,4′:4,5]thieno[2,3-e]indazol-6-amine]
- IC50 [1]: ≤ 5 µM
- IC50 [2]: ≤ 1 µM

Compound: Fc1cccc(COc2ccc(Nc3ncnc4sc5c(c34)CCc3c-5cnn3CCN3CCOCC3)cc2Cl)c1 [Example 86, N-{3-chloro-4-[(3-fluorobenzyl)oxy]phenyl}-3-(2-morpholin-4-ylethyl)-4,5-dihydro-3H-pyrimido[5′,4′:4,5]thieno[2,3-e]indazol-6-amine]
- IC50 [1]: ≤ 50 µM
- IC50 [2]: ≤ 1 µM

Compound: CS(=O)(=O)CCNCCn1cc2c(n1)CCc1c-2sc2ncnc(Nc3ccc(OCc4cccc(F)c4)c(Cl)c3)c12 [Example 78, N-{3-chloro-4-[(3-fluorobenzyl)oxy]phenyl}-2-(2-{[2-(methylsulfonyl)ethyl]amino}ethyl)-4,5-dihydro-2H-pyrimido[5′,4′:4,5]thieno[2,3-e]indazol-6-amine]
- IC50 [1]: ≤ 5 µM
- IC50 [2]: ≤ 1 µM

Compound: CC(C)CNC[C@@H](O)Cn1cc2c(n1)CCc1c-2sc2ncnc(Nc3ccc(OCc4cccc(F)c4)c(Cl)c3)c12 [Example 161, (2R)-1-[6-({3-chloro-4-[(3-fluorobenzyl)oxy]phenyl}amino)-4,5-dihydro-2H-pyrimido[5′,4′:4,5]thieno[2,3-e]indazol-2-yl]-3-(isobutylamino)propan-2-ol trifluoroacetate (salt)]
- IC50 [1]: ≤ 50 µM
- IC50 [2]: ≤ 5 µM

Compound: O[C@H]1CCN(CCn2cc3c(n2)CCc2c-3sc3ncnc(Nc4ccc(F)c(Cl)c4)c23)C1 [Example 30, (3S)-1-(2-{6-[(3-chloro-4-fluorophenyl)amino]-4,5-dihydro-2H-pyrimido[5′,4′:4,5]thieno[2,3-e]indazol-2-yl}ethyl)pyrrolidin-3-ol]
- IC50 [1]: ≤ 5 µM
- IC50 [2]: ≤ 5 µM

Compound: O=C(Cn1ncc2c1CCc1c-2sc2ncnc(Nc3ccc(OCc4cccc(F)c4)c(Cl)c3)c12)N1CCC(O)CC1 [Example 213, 1-{[6-({3-chloro-4-[(3-fluorobenzyl)oxy]phenyl}amino)-4,5-dihydro-3H-pyrimido[5′,4′:4,5]thieno[2,3-e]indazol-3-yl]acetyl}piperidin-4-ol]
- IC50 [1]: ≤ 5 µM
- IC50 [2]: ≤ 1 µM

Compound: O=C(Cn1ncc2c1CCc1c-2sc2ncnc(Nc3ccc(OCc4cccc(F)c4)c(Cl)c3)c12)N1CCOCC1 [Example 199, N-{3-chloro-4-[(3-fluorobenzyl)oxy]phenyl}-3-(2-morpholin-4-yl-2-oxoethyl)-4,5-dihydro-3H-pyrimido[5′,4′:4,5]thieno[2,3-e]indazol-6-amine]
- IC50 [1]: ≤ 50 µM
- IC50 [2]: ≤ 1 µM

Compound: COCCN(CCOC)CCn1ncc2c1CCc1c-2sc2ncnc(Nc3ccc(OCc4cccc(F)c4)c(Cl)c3)c12 [Example 260, 3-{2-[bis(2-methoxyethyl)amino]ethyl}-N-{3-chloro-4-[(3-fluorobenzyl)oxy]phenyl}-4,5-dihydro-3H-pyrimido[5′,4′:4,5]thieno[2,3-e]indazol-6-amine]
- IC50 [1]: ≤ 50 µM
- IC50 [2]: ≤ 5 µM

Compound: CN(C)[C@H]1CCN(CCn2cc3c(n2)CCc2c-3sc3ncnc(Nc4ccc(OCc5cccc(F)c5)c(Cl)c4)c23)C1 [Example 58, N-{3-chloro-4-[(3-fluorobenzyl)oxy]phenyl}-2-{2-[(3S)-3-(dimethylamino)pyrrolidin 1-yl]ethyl}-4,5-dihydro-2H-pyrimido[5′,4′:4,5]thieno[2,3-e]indazol-6-amine]
- IC50 [1]: ≤ 5 µM
- IC50 [2]: ≤ 1 µM

Compound: CC(C)c1nccn1CCn1cc2c(n1)CCc1c-2sc2ncnc(Nc3ccc(F)c(Cl)c3)c12 [Example 42, N-(3-chloro-4-fluorophenyl)-2-[2-(2-isopropyl-1H-imidazol-1-yl)ethyl]-4,5-dihydro-2H-pyrimido[5′,4′:4,5]thieno[2,3-e]indazol-6-amine]
- IC50 [1]: ≤ 5 µM
- IC50 [2]: ≤ 5 µM

Compound: OCCNCCn1ncc2c1CCc1c-2sc2ncnc(Nc3ccc(OCc4cccc(F)c4)c(Cl)c3)c12 [Example 264, 2-({2-[6-({3-chloro-4-[(3-fluorobenzyl)oxy]phenyl}amino)-4,5-dihydro-3H-pyrimido[5′,4′:4,5]thieno[2,3-e]indazol-3-yl]ethyl}amino)ethanol]
- IC50 [1]: ≤ 50 µM
- IC50 [2]: ≤ 1 µM

Compound: O=C(CN1CCOCC1)N1CCC(n2cc3c(n2)CCc2c-3sc3ncnc(Nc4ccc(OCc5cccc(F)c5)c(Cl)c4)c23)CC1 [Example 222, N-{3-chloro-4-[(3-fluorobenzyl)oxy]phenyl}-2-[1-(morpholin-4-ylacetyl)piperidin-4-yl]-4,5-dihydro-2H-pyrimido[5′,4′:4,5]thieno[2,3-e]indazol-6-amine]
- IC50 [1]: ≤ 5 µM
- IC50 [2]: ≤ 1 µM

Compound: CN(C)CCNC(=O)Cn1ncc2c1CCc1c-2sc2ncnc(Nc3ccc(OCc4cccc(F)c4)c(Cl)c3)c12 [Example 193, 2-[6-({3-chloro-4-[(3-fluorobenzyl)oxy]phenyl}amino)-4,5-dihydro-3H-pyrimido[5′,4′:4,5]thieno[2,3-e]indazol-3-yl]-N-[2-(dimethylamino)ethyl]acetamide]
- IC50 [1]: ≤ 50 µM
- IC50 [2]: ≤ 1 µM

Compound: OCCn1cc2c(n1)CCc1c-2sc2ncnc(Nc3ccc4c(cnn4Cc4cccc(F)c4)c3)c12 [Example 275, 2-(6-{[1-(3-fluorobenzyl)-1H-indazol-5-yl]amino}-4,5-dihydro-2H-pyrimido[5′,4′:4,5]thieno[2,3-e]indazol-2-yl)ethanol]
- IC50 [1]: ≤ 5 µM
- IC50 [2]: ≤ 1 µM

Compound: CN1CCN(CCn2ncc3c2CCc2c-3sc3ncnc(Nc4ccc(OCc5ccc(F)cc5)c(Cl)c4)c23)CC1 [Example 322, N-{3-chloro-4-[(4-fluorobenzyl)oxy]phenyl}-3-[2-(4-methylpiperazin-1-yl)ethyl]-4,5-dihydro-3H-pyrimido[5′,4′:4,5]thieno[2,3-e]indazol-6-amine trifluoroacelate]
- IC50 [1]: ≤ 5 µM
- IC50 [2]: ≤ 1 µM

Compound: CN1CCN(C(=O)Cn2cc3c(n2)CCc2c-3sc3ncnc(Nc4ccc5c(cnn5Cc5cccc(F)c5)c4)c23)CC1 [Example 182, N-[1-(3-fluorobenzyl)-1H-indazol-5-yl]-2-[2-(4-methylpiperazin-1-yl)-2-oxoethyl]-4,5-dihydro-2H-pyrimido[5′,4′:4,5]thieno[2,3-e]indazol-6-amine]
- IC50 [1]: ≤ 5 µM
- IC50 [2]: ≤ 1 µM

Compound: Fc1ccc(Nc2ncnc3sc4c(c23)CCc2nn(CCBr)cc2-4)cc1Cl [Example 6, 2-(2-bromoethyl)-N-(3-chloro-4-fluorophenyl)-4,5-dihydro-2H-pyrimido[5′,4′:4,5]thieno[2,3-e]indazol-6-amine]
- IC50 [2]: ≤ 5 µM

Compound: CS(=O)(=O)OCCn1cc2c(n1)CCc1c-2sc2ncnc(Nc3ccc4c(cnn4Cc4ccccc4)c3)c12 [Example 303, 2-{6-[(1-benzyl-1H-indazol-5-yl)amino]-4,5-dihydro-2H-pyrimido[5′,4′:4,5]thieno[2,3-e]indazol-2-yl}ethyl methanesulfonate]
- IC50 [2]: ≤ 1 µM

Compound: c1ccc(Cn2ncc3cc(Nc4ncnc5sc6c(c45)CCc4nn(CCN5CCNCC5)cc4-6)ccc32)cc1 [Example 306, N-(1-benzyl-1H-indazol-5-yl)-2-(2-piperazin-1-ylethyl)-4,5-dihydro-2H-pyrimido[5′,4′:4,5]thieno[2,3-e]indazol-6-amine]
- IC50 [2]: ≤ 1 µM

Compound: CN1CCN(CCn2cc3c(n2)CCc2c-3sc3ncnc(Nc4ccc5c(ccn5Cc5ccccc5)c4)c23)CC1 [Example 337, N-(1-benzyl-1H-indol-5-yl)-2-[2-(4-methylpiperazin-1-yl)ethyl]-4,5-dihydro-2H-pyrimido[5′,4′:4,5]thieno[2,3-e]indazol-6-amine]
- IC50 [2]: ≤ 1 µM

Compound: CN(C)[C@H]1CCN(C[C@@H](O)Cn2cc3c(n2)CCc2c-3sc3ncnc(Nc4ccc(OCc5cccc(F)c5)c(Cl)c4)c23)C1 [Example 153, (2R)-1-[6-({3-chloro-4-[(3-fluorobenzyl)oxy]phenyl}amino)-4,5-dihydro-2H-pyrimido[5′,4′:4,5]thieno[2,3-e]indazol-2-yl]-3-[(3S)-3-(dimethylamino)pyrrolidin-1-yl]propan-2-ol trilfluoroacetate (salt)]
- IC50 [2]: ≤ 1 µM

Compound: Fc1cccc(COc2ccc(Nc3ncnc4sc5c(c34)CCc3nn(CCC4CCNCC4)cc3-5)cc2Cl)c1 [Example 247, N-{3-chloro-4-[(3-fluorobenzyl)oxy]phenyl}-2-(2-piperidin-4-ylethyl)-4,5-dihydro-2H-pyrimido[5′,4′:4,5]thieno[2,3-e]indazol-6-amine]
- IC50 [2]: ≤ 1 µM

Compound: O=C(CCl)N1CCC(Cn2cc3c(n2)CCc2c-3sc3ncnc(Nc4ccc(OCc5cccc(F)c5)c(Cl)c4)c23)CC1 [Example 233, 2-{[1-(chloroacetyl)piperidin-4-yl]methyl}-N-{3-chloro-4-[(3-fluorobenzyl)oxy]phenyl}-4,5-dihydro-2H-pyrimido[5′,4′:4,5]thieno[2,3-e]indazol-6-amine trifluoroacetate]
- IC50 [2]: ≤ 1 µM
